The test has as its system androgen receptor (androgen-induced PSA-luciferase activity in LNCaP cells). The experiment in a line: Androgen-induced PSA (6.1 kb)-luciferase reporter assay in LNCaP cells. It is filed as cell-based. The settings on record: Homo sapiens; LNCaP cells transiently transfected with PSA (6.1 kb)-luciferase reporter; R1881 (1 nM), 24 h; normalized to maximum androgen-induced activity (vehicle only). The method, then: To determine the IC50, treatments were normalized to the maximum activity with androgen-induction (in the absence of test compounds, vehicle only) (Table 1).
Luciferase Assay: Lysates were thawed on ice then collected into V-bottom 96-well tissue culture plates. Lysates were centrifuged at 4° C. for 5 minutes at 4000 rpm. To measure luminescence of LNCaP cell lysates the Firefly Luciferase Assay System (Promega) was employed, according to manufacturer's protocol.
Comparisons between treatment and control groups were compared using Two-Way ANOVA with post-hoc Dunnett's and Tukey's tests. Differences were considered statistically significant at P values less than 0.05. Densitometric quantification of relative AR levels was determined by Image.
In general terms: In a reporter assay the amount or activity of a reporter protein is the signal.

`C[C@H](Oc1ccc(C(C)(C)c2cc(Cl)c(OCCCl)c(C#N)c2)cc1)c1ccnc(NS(C)(=O)=O)n1` [Example A170]: inhibition was half-maximal at 651 nM (IC50).
